Assay results reported in US20260048145A1, “COMPOSITIONS AND METHODS FOR TREATING DRUG ADDICTION” (The Children's Medical Center Corporation, priority 2022, published 2026).
Numbered stars: 1 amine (or outer) side, 2 acyl side, 3 side chain; on linkers, the order of the positions; unused ones are H or OH. Square brackets hold non-standard residues; d marks the D form. Peptide text beside a SMILES is read from it. NMeF = CN[C@@H](Cc1ccccc1)C(=O)O; Suc = O=C(CCC(=O)[*:2])[*:1]

Key:
[1] = target: T1, NK3R (Mus musculus, UniProt P47937); assay: Cocaine-CPP with systemic injection of senktide; type: in vivo, mice; settings: systemic injection of senktide vs saline; CPP score
T1 construct: from tissue; host or cells: whole living mice (in vivo behavioural tests)
T1 sequence (P47937 1-452): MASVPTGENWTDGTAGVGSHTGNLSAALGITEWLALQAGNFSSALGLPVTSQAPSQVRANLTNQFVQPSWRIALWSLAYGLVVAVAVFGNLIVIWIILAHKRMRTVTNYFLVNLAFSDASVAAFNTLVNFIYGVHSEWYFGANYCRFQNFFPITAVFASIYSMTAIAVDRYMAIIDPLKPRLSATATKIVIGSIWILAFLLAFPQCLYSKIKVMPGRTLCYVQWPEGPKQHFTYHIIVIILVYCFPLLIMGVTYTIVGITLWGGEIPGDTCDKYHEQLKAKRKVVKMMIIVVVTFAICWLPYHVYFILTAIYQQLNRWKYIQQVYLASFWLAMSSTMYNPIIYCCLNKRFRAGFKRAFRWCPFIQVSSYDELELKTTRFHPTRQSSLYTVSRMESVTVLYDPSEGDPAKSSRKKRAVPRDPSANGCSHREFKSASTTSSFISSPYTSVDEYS
Description: (§1) FIGS. 12A-12B show systemic injection of a TacR3 agonist, senktide, reduced cocaine-conditioned place preference and cocaine-induced locomotion. […] The CPP scores were calculated by subtracting the time spent in pre-conditioning phase from the time spent in post-conditioning phase, *, […], unpaired t-test.
A two-compartment CPP chamber was used with one compartment with grid rod style floor and the other with mesh style floor (Med Associates). Chamber size is 25×19×17 cm (L×D×H). Mice trajectories were tracked by infra-red photobeam detectors, and the travel distance and the duration the mice spent in the two compartments were recorded. The CPP protocol consists of three sessions that include pre-conditioning, conditioning, and post-conditioning.
The Tac2 gene encodes the neuropeptide neurokinin B (NKB). NKB has high affinity for neurokinin 3 receptor (NK3R, encoded by the TacR3 gene). The NKB-NK3R (ligand-receptor) signal pathway is functional in both central and peripheral nervous systems and have been implicated in diverse physiological processes, such as reproduction, inflammation, and psychiatric disorders^55. To evaluate the functional relevance of the NKB-NK3R pathway in addiction, an NK3R agonist, senktide, was systemically administered to mice, and then addiction-related behavioral tests were performed. […]

[2] = target: T1, NK3R; assay: Cocaine-induced locomotion assay with i.p. injection of senktide; type: in vivo, mice; settings: i.p. injection of senktide vs saline; distance traveled in 30-minute post-treatment period
Description: as §1
The basal level of locomotion as well as cocaine-induced change of locomotor activity were assessed in the open field arena the same as the OFT. For chemogenetics experiments, 20 minutes after administration of either saline or CNO, mice were individually placed in the center of the test chamber, triggering the infra-red tracking system to record locomotor activity, as measured by the number of beam breaks. For optogenetic experiments, the total duration of the behavioral test was 30 minutes, which was divided into […] 5×6-min epochs (with 3-minutes laser on. 3-minutes laser off, respectively). Different groups of mice were balanced across the 8 chambers to avoid potential environmental bias.
The Tac2 gene encodes the neuropeptide neurokinin B (NKB). NKB has high affinity for neurokinin 3 receptor (NK3R, encoded by the TacR3 gene). The NKB-NK3R (ligand-receptor) signal pathway is functional in both central and peripheral nervous systems and have been implicated in diverse physiological processes, such as reproduction, inflammation, and psychiatric disorders^55. […]

Q: How did the cocaine-conditioned place preference [1] turn out when `CSCC[C@H](NC(=O)[C@H](CC(C)C)NC(=O)CNC(=O)[C@H](Cc1ccccc1)N(C)C(=O)[C@H](Cc1ccccc1)NC(=O)[C@H](CC(=O)O)NC(=O)CCC(=O)O)C(N)=O` [senktide, Suc-Asp-Phe-(Me-Phe)-Gly-Leu-Met] (Suc-DF[NMeF]GLM-NH2) was run?
A: Its cocaine-conditioned place preference is “reduced”.

Q: And the cocaine-induced locomotion [2]?
A: The cocaine-induced locomotion was “reduced”.
